Drawing on PubChem BioAssay (NCI), this text covers GI50 and TGI for 12 compounds.

Some test systems named below: IGROV1 ovarian; OVCAR-8 ovarian; SNB-75 CNS; SK-MEL-5 melanoma; RPMI-8226 leukemia; NCI-H522 lung; HOP-92 NSCLC; COLO 205 colon; MCF7 breast; SR leukemia.
Holding throughout (experiment): NCI-60 cell line screen, 48 h

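Interpolation was linear, between the two tested concentrations surrounding the appropriate level; five concentrations were tested over 48 hours in 96-well plates. Here, GI50 denotes the concentration required for 50% inhibition of growth. The concentration for full growth arrest is given as TGI.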

Turning to `CN(/N=N/c1nc(OCc2ccccc2)c2[nH]cnc2n1)C(=O)N(C)/N=N/c1nc(OCc2ccccc2)c2[nH]cnc2n1`, the GI50 with IGROV1 ovarian is 34.9 µM; with OVCAR-8 ovarian, 51 µM; with SNB-75 CNS, more than 100 µM; in the assay with SK-MEL-5 melanoma, 20.9 µM; in the assay on RPMI-8226 leukemia it was 38.1 µM; with NCI-H522 lung, 39.4 µM. The GI50 was 29.9 µM in the assay on HOP-92 NSCLC, 37.5 µM with COLO 205 colon and 43 µM with MCF7 breast. The TGI in the assay on IGROV1 ovarian was more than 100 µM; in the assay with OVCAR-8 ovarian, more than 100 µM; in the assay on SNB-75 CNS, more than 100 µM; in the assay with SK-MEL-5 melanoma, 61.5 µM; in the assay with RPMI-8226 leukemia, more than 100 µM; with NCI-H522 lung, more than 100 µM. Also, the TGI in the assay on HOP-92 NSCLC, with COLO 205 colon and with MCF7 breast was more than 100 µM each time.

Consider `CNC1NC(=O)c2ccccc2N1Cc1ccc(F)cc1` (stereo not drawn), for which the TGI with IGROV1 ovarian, in the assay on OVCAR-8 ovarian, with SNB-75 CNS, with SK-MEL-5 melanoma, in the assay on RPMI-8226 leukemia and with NCI-H522 lung was more than 100 µM each time. Also, the TGI with HOP-92 NSCLC, in the assay on COLO 205 colon and in the assay with MCF7 breast was more than 100 µM throughout.

In the case of `C#CC[C@H](c1nc2cc(Cl)ccc2c(=O)n1Nc1ccccc1)N(CCCN)C(=O)c1cccc(Cl)c1F`, the GI50 is 0.979 µM with IGROV1 ovarian; 0.511 µM with OVCAR-8 ovarian; 0.251 µM in the assay with SNB-75 CNS; 0.727 µM with SK-MEL-5 melanoma; 0.131 µM in the assay on RPMI-8226 leukemia; 0.0898 µM in the assay with NCI-H522 lung. For the same compound, the GI50 in the assay with HOP-92 NSCLC is 0.179 µM; with COLO 205 colon, 0.0951 µM; in the assay with MCF7 breast, 0.0337 µM. Moreover, the TGI is 5.8 µM in the assay with IGROV1 ovarian; 1.98 µM in the assay on OVCAR-8 ovarian; 1.53 µM in the assay with SNB-75 CNS; 2.14 µM in the assay with SK-MEL-5 melanoma; 1.16 µM in the assay on RPMI-8226 leukemia; 0.935 µM with NCI-H522 lung. Moreover, the TGI in the assay on HOP-92 NSCLC stood at 1.65 µM; in the assay with COLO 205 colon, 0.868 µM; with MCF7 breast, 1.36 µM.

In the case of `c1cncc(C(Nc2cccc3cccnc23)Nc2cccc3cccnc23)c1`, the TGI in the assay with IGROV1 ovarian, with OVCAR-8 ovarian, in the assay on SNB-75 CNS, in the assay with SK-MEL-5 melanoma, in the assay with RPMI-8226 leukemia and in the assay with NCI-H522 lung was more than 100 µM in each case. Moreover, the TGI in the assay on HOP-92 NSCLC, in the assay with COLO 205 colon and in the assay with MCF7 breast was more than 100 µM in each case.

As to `Cc1cc(N/N=C/c2nc(-c3ccccc3)oc2C)c2cc(Cl)ccc2n1`, the GI50 was 1.68 µM with IGROV1 ovarian; 2.04 µM with OVCAR-8 ovarian; 1.63 µM with SNB-75 CNS; 1.76 µM in the assay with SK-MEL-5 melanoma; 1.43 µM with HOP-92 NSCLC; 1.8 µM with COLO 205 colon. Further, in the assay on MCF7 breast, the GI50 is 1.64 µM. The TGI with IGROV1 ovarian was 3.32 µM; in the assay on OVCAR-8 ovarian, 4.4 µM; in the assay with SNB-75 CNS, 3.34 µM; in the assay with SK-MEL-5 melanoma it was 3.2 µM; with HOP-92 NSCLC, 2.87 µM; in the assay on COLO 205 colon, 3.66 µM. Moreover, the TGI in the assay on MCF7 breast came to 3.56 µM.

With `COc1ccc(C=NC23CC4CC(CC(C4)C2)C3)cc1`, the TGI in the assay on IGROV1 ovarian, in the assay on OVCAR-8 ovarian, with SNB-75 CNS, in the assay with SK-MEL-5 melanoma, in the assay on SR leukemia and in the assay on RPMI-8226 leukemia was more than 100 µM throughout. Further, the TGI was more than 100 µM with NCI-H522 lung and more than 10 µM in the assay with COLO 205 colon.

Regarding `CN(C)c1ccc(/C=C2\N=C(c3ccc(N)cc3)OC2=O)cc1`, the TGI with IGROV1 ovarian, in the assay on OVCAR-8 ovarian, in the assay with SNB-75 CNS, with SK-MEL-5 melanoma, with RPMI-8226 leukemia and in the assay with NCI-H522 lung was more than 100 µM in each case. The TGI in the assay on HOP-92 NSCLC and in the assay on COLO 205 colon was more than 100 µM each time.

Take `O=[N+]([O-])c1cc(Br)cc2c1[nH]c1ccc(Br)cc12`: the GI50 in the assay with IGROV1 ovarian was 2.74 µM; in the assay with OVCAR-8 ovarian, 11.4 µM; with SNB-75 CNS it was 2.12 µM; in the assay with SK-MEL-5 melanoma, 8.03 µM; in the assay with RPMI-8226 leukemia, 25.4 µM; with NCI-H522 lung, 3.09 µM. Further, the GI50 was 7.85 µM in the assay with HOP-92 NSCLC, 4.7 µM with COLO 205 colon and 6.34 µM in the assay on MCF7 breast. For the same compound, the TGI in the assay with IGROV1 ovarian was 38.7 µM; in the assay on OVCAR-8 ovarian it was more than 100 µM; with SNB-75 CNS it was 14.8 µM; in the assay with SK-MEL-5 melanoma it was more than 100 µM; in the assay with RPMI-8226 leukemia, more than 100 µM; with NCI-H522 lung it was 40.3 µM. Besides, the figures for the TGI in the assay on HOP-92 NSCLC, with COLO 205 colon and with MCF7 breast were 36.5 µM, more than 100 µM and more than 100 µM, respectively.

For the compound `CC(C)(C)C(=O)C(c1ccc(-c2cscn2)cc1)c1ccc(-c2cscn2)cc1`, the TGI was more than 100 µM with IGROV1 ovarian; more than 100 µM with OVCAR-8 ovarian; 25.6 µM in the assay with SNB-75 CNS; more than 100 µM in the assay with SK-MEL-5 melanoma; more than 100 µM with RPMI-8226 leukemia; more than 100 µM in the assay on NCI-H522 lung. The TGI with HOP-92 NSCLC was 30 µM; in the assay on COLO 205 colon it was more than 100 µM.

For `CC(=O)O[C@@H]1CC(C)C2CC2C2=C(C(O)OC2O)[C@@H]1C(C)CCC=C(C)C` (stereo partly drawn), the TGI amounted to 51.1 µM in the assay on IGROV1 ovarian; 73 µM in the assay on OVCAR-8 ovarian; 76.1 µM with SNB-75 CNS; 60.6 µM in the assay on SK-MEL-5 melanoma; 59.1 µM in the assay with RPMI-8226 leukemia; 31.5 µM in the assay with NCI-H522 lung. Also, the TGI with HOP-92 NSCLC turned out to be 35.5 µM; in the assay on COLO 205 colon, 32.5 µM.

For `CCOC(=O)C#Cc1ccc(C#CC(=O)OCC)cc1`, the TGI in the assay with IGROV1 ovarian was more than 100 µM; in the assay with OVCAR-8 ovarian, more than 23.2 µM; in the assay on SNB-75 CNS it was 0.609 µM; with SK-MEL-5 melanoma, more than 27.4 µM; in the assay with RPMI-8226 leukemia, more than 25.3 µM; in the assay with HOP-92 NSCLC, more than 31.7 µM. Besides, the TGI came out at 16.5 µM with COLO 205 colon and 10.6 µM in the assay on MCF7 breast.

As to `Cc1cc2c(c(C#N)c1C)NC(=O)C(CC(=O)O)C2=O` (stereo not drawn), the TGI in the assay with IGROV1 ovarian, in the assay on OVCAR-8 ovarian, with SNB-75 CNS, in the assay on SK-MEL-5 melanoma, in the assay with RPMI-8226 leukemia and with HOP-92 NSCLC was more than 100 µM in each case. In the assay with COLO 205 colon, the TGI was more than 100 µM.
